Assay results from patent publication US10507212B2, “Method for use of homopiperazinium compounds in the treatment of cancer” (UNIVERSITÉ LAVAL, priority 2014, dated 2019).
Where two headings read alike, the source gives them in different places.

Key:
[1] = tested on: A549 adenocarcinoma cell line; experiment: Cell proliferation assay, A549 (MTT); settings: for IC50: Tosylate
Protocol: In vitro experiments were conducted on four cancer cell lines: the A549 adenocarcinoma cell line, the H520 squamous cell carcinoma the H82 small cell lung carcinoma and Calu 3 lung adenocarcinoma. The A549 tumor cells, were plated at a density of 1.5×10^4 cells per mL and let to adhere on 96-well microplates in F12K cell culture medium enriched with 10% fetal calf serum (FCS). The H520, H82 and Calu 3 tumor cells were plated at a density of 5×10^4 cells per mL in RPMI+10% FCS. After 24 h in culture, the medium was changed and cells were exposed to ASM-024 at concentrations ranging from 10^−7M to 10^−3M (FIGS. 1A-1C). After 3 and 6 days in culture, cell growth was quantified using the MTT colorimetric assay (M2128, Sigma) at 575-690 nm or the Cell Titer fluorescence assay (G8080, Promega) at 560/590 nm.
In an another set of experiments, a series of 16 other homopiperazinium compounds, in addition to ASM-024, were tested for their anti-proliferative effect on the four tumor cell lines described above after up to 6 days in culture at concentrations of 10^-7M to 10^-3M. (FIGS. 4A-4E) Cell growth was quantified using the MTT colorimetric assay for the A-549, H520 and Calu 3 cell lines and the CellTiter Fluorescence assay.for the H82 tumor cell line These are established method of determining viable cell number in proliferation studies.

MDA-MB-231 = experiment: Anti-proliferative MTT assay, MDA-MB-231; format: cell-based; settings: Homo sapiens
Protocol: (§1) The effect of ASM-024 on the growth of MCF7, SK-BR-3, MDA-MB-231, BT-474 (mammary adenocarcinomas), SK-OV/3 (ovary adenocarcinoma), PC3 (prostate adenocarcinoma) SK-MEL-28(skin melanoma) and C6 (tumor cell glioma) was evaluated. Cells were cultured in RPMI medium and incubated with different concentrations of ASM-024. Cell proliferation was measured on days 3 and 6 by the MTT colorimetric assay. Absorbance at 576-690 nm was analyzed with a microplate reader and expressed as optical density (OD) and as a percentage of the value of corresponding untreated cells. The IC50 was determined as the drug concentration required to inhibit cell growth by 50% from a plot of percent cell viability from control untreated cells versus treated cells.
FIGS. 5A and 5B illustrate the observed results for the MDA-MB-231 mammary/breast gland adenocarcinoma assay. Cells were incubated with the dose drug shown and growth measured at the days indicated. In FIG. 5A the data is expressed as optical density (OD) and in FIG. 5B as a percentage of the value of corresponding untreated cells. P<0.05 compared to control at same day by Student t-test

C6 = experiment: Anti-proliferative MTT assay, C6; format: cell-based; settings: Rattus norvegicus
Protocol: as §1

IC50 ([1]; read-out: IC50 Day 3, A549, day 3 in culture): 56 ± 20 µM
IC50 ([1]; read-out: IC50 Day 6, A549, day 6 in culture): 59 ± 21 µM
IC50 (MDA-MB-231; 72 h, MDA-MB-231, day 3, read-out: IC50 Day 3): > 1000 µM
IC50 (MDA-MB-231; 144 h, MDA-MB-231, day 6, read-out: IC50 Day 6): 661 ± 115 µM
SMILES: CC[N+]1(CC)CCCN(c2ccccc2)CC1.Cc1ccc(S(=O)(=O)[O-])cc1 [ASM-024, 1,1-Diethyl-4-phenyl-homopiperazinium Tosylate]
cell proliferation / cell growth inhibition (in words) ([1]; A549, day 3 and day 6, text on figures): dose-dependent decrease in cell proliferation
IC50 (C6; 72 h, C6, day 3, read-out: IC50 Day 3): 353 ± 52 µM
IC50 (C6; 144 h, C6, day 6, read-out: IC50 Day 6): 186 ± 27 µM
